Measured values taken from PubChem BioAssay (NCI).
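Growth conditions: 96-well plates. Treatment: test compound, 48 hours, 5 concentrations. Analysis: linear interpolation between bracketing concentrations; unreached endpoints set to highest concentration. Here, GI50 denotes the concentration required for 50% inhibition of growth. TGI: total growth inhibition.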 Where a SMILES comes first, the peptide text is derived from it. [ ]: non-standard residue; d: D form. The star is where a group is joined. Palmitoyl = CCCCCCCCCCCCCCCC(=O)*; Cbz = O=C(OCc1ccccc1)*; Aib = CC(C)(N)C(=O)O; OBn = c1ccc(CO*)cc1

Experiments:
Assay in all cases: DTP human tumour cell line panel, 48 h
MCF7 breast = system: MCF7 breast
MDA-MB-231 breast = system: MDA-MB-231 breast
NCI-H460 lung = system: NCI-H460 lung
NCI/ADR-RES ovarian = system: NCI/ADR-RES ovarian
RXF 393 renal = system: RXF 393 renal
TK-10 renal = system: TK-10 renal

CN1CC[C@]2(c3cccc(O)c3)CC(=O)/C(=C/c3ccccc3)[C@@H]1C2 showed a TGI (MCF7 breast) of 6.06 µM, a TGI (MDA-MB-231 breast) of 7.29 µM and a TGI (NCI-H460 lung) of 7.23 µM. It also gave a TGI (NCI/ADR-RES ovarian) of 16.1 µM, a TGI (RXF 393 renal) of 4.18 µM and a TGI (TK-10 renal) of 27.1 µM.

With CC(C)(CO)CNc1nc(N)nc(Cl)c1/C=N/O the TGI (MCF7 breast) was over 100 µM, the TGI (MDA-MB-231 breast) was over 100 µM and the TGI (NCI-H460 lung) was over 100 µM. It also gave a TGI (NCI/ADR-RES ovarian) of over 100 µM, a TGI (RXF 393 renal) of over 100 µM and a TGI (TK-10 renal) of over 100 µM.

In the case of CC(NC(=O)C(C)(C)NC(=O)C(CC(=O)OCc1ccccc1)NC(=O)OCc1ccccc1)C(N)=O (stereo not given) (Cbz-Asp(OBn)-[Aib]-Ala-NH2; configuration not given here), the TGI (MCF7 breast) is reported as over 100 µM, the TGI (MDA-MB-231 breast) is reported as over 100 µM and the TGI (NCI-H460 lung) is reported as over 100 µM. The TGI (NCI/ADR-RES ovarian) was over 100 µM, the TGI (RXF 393 renal) was over 100 µM and the TGI (TK-10 renal) was over 100 µM.

In the case of Cn1c2ccccc2c2c(=S)c3ccccc3ccc21, the TGI (MCF7 breast) is reported as over 100 µM, the TGI (MDA-MB-231 breast) is reported as over 100 µM and the TGI (NCI-H460 lung) is reported as over 100 µM. For the same compound, the TGI (NCI/ADR-RES ovarian) was over 100 µM, the TGI (RXF 393 renal) was over 100 µM and the TGI (TK-10 renal) was over 100 µM.

In the case of CCOC(=O)c1c2cccccc-2nc1Nc1cccc2c(C)ccnc12, the TGI (MCF7 breast) is reported as over 10 µM, the TGI (MDA-MB-231 breast) is reported as over 10 µM and the TGI (NCI-H460 lung) is reported as over 10 µM. The TGI (NCI/ADR-RES ovarian) was over 10 µM, the TGI (RXF 393 renal) was over 10 µM and the TGI (TK-10 renal) was over 10 µM.

COc1ccc(C(=O)NCCN(C)C)c2nc3ccccc3cc12 gave a TGI (MCF7 breast) of 3.99 µM, a TGI (MDA-MB-231 breast) of 10.9 µM and a TGI (NCI-H460 lung) of 2.55 µM. For the same compound, the TGI (NCI/ADR-RES ovarian) was 5.22 µM, the TGI (RXF 393 renal) was 6.67 µM and the TGI (TK-10 renal) was 5.42 µM.

In the case of CC(C)(C)N=C(N)NC#N, the TGI (MCF7 breast) is reported as over 100 µM, the TGI (MDA-MB-231 breast) is reported as over 100 µM and the TGI (NCI-H460 lung) is reported as over 100 µM. The TGI (NCI/ADR-RES ovarian) was over 100 µM, the TGI (RXF 393 renal) was over 100 µM and the TGI (TK-10 renal) was over 100 µM.

Work on O=C(CC(=O)Nc1ccccc1)NNC(Sc1ccccc1)c1cc(N=Nc2ccc(Br)cc2)ccc1O (stereo not given) yielded a TGI (MCF7 breast) of over 10 µM, a TGI (MDA-MB-231 breast) of over 10 µM and a TGI (NCI-H460 lung) of over 10 µM. The TGI (NCI/ADR-RES ovarian) was over 10 µM, the TGI (RXF 393 renal) was over 10 µM and the TGI (TK-10 renal) was over 10 µM.

With O=C1C(=Nc2ccc(Nc3ccccc3)cc2)Oc2ccccc21 the TGI (MCF7 breast) was 5.74 µM, the TGI (MDA-MB-231 breast) was 4.51 µM and the TGI (NCI-H460 lung) was 30.5 µM. For the same compound, the TGI (RXF 393 renal) was 4.89 µM and the TGI (TK-10 renal) was 12.2 µM.

For CO/N=C(/C(=O)OC)c1ccccc1COc1ccccc1C(F)(F)F, the TGI (MCF7 breast) was over 100 µM, the TGI (MDA-MB-231 breast) was over 100 µM and the TGI (NCI-H460 lung) was over 100 µM. For the same compound, the TGI (NCI/ADR-RES ovarian) was over 100 µM, the TGI (RXF 393 renal) was over 100 µM and the TGI (TK-10 renal) was over 100 µM.

In the case of CC(C)(C)OC(=O)NC(CSSCC(NC(=O)OC(C)(C)C)C(=O)O)C(=O)O (stereo not given), the TGI (MCF7 breast) is reported as over 100 µM, the TGI (MDA-MB-231 breast) is reported as over 100 µM and the TGI (NCI-H460 lung) is reported as over 100 µM. It also gave a TGI (NCI/ADR-RES ovarian) of over 100 µM, a TGI (RXF 393 renal) of over 100 µM and a TGI (TK-10 renal) of over 100 µM.

Work on c1ccc(C2=NOC(c3ccccc3)N2C23CC4CC(CC(C4)C2)C3)cc1 (stereo not given) yielded a TGI (MCF7 breast) of over 10 µM, a TGI (MDA-MB-231 breast) of over 10 µM and a TGI (NCI-H460 lung) of over 10 µM. For the same compound, the TGI (NCI/ADR-RES ovarian) was over 10 µM, the TGI (RXF 393 renal) was over 10 µM and the TGI (TK-10 renal) was over 10 µM.

Work on CC(C)Oc1cccc(N2C(=NCc3c[nH]c4ccccc34)Nc3ccncc3S2(=O)=O)c1 yielded a TGI (MCF7 breast) of over 100 µM, a TGI (NCI-H460 lung) of 77.6 µM and a TGI (NCI/ADR-RES ovarian) of 97.5 µM. For the same compound, the TGI (RXF 393 renal) was over 100 µM and the TGI (TK-10 renal) was 97.4 µM.

With Nc1ncnc2c1ccn2C/C=C/CO the TGI (MCF7 breast) was over 100 µM, the TGI (MDA-MB-231 breast) was over 100 µM and the TGI (NCI-H460 lung) was over 100 µM. The TGI (NCI/ADR-RES ovarian) was over 100 µM, the TGI (RXF 393 renal) was over 100 µM and the TGI (TK-10 renal) was over 100 µM.

CCCCCCCCCCCCCCCC(=O)N1CCCC1C(=O)NCC(=O)NC(Cc1ccccc1)C(=O)N1CCCC1C(=O)NC(CO)C(=O)NC(Cc1ccc(O)cc1)C(=O)NC(CCCCN)C(=O)NC(CC(C)C)C(=O)NC(CCCN=C(N)N)C(=O)N1CCCC1C(=O)NCC(N)=O (stereo not given) (Palmitoyl-PGFPSYKLRPG-NH2; configuration not given here) was tested, and the GI50 (MCF7 breast) was 15 µM, the TGI (MCF7 breast) was 35.3 µM and the GI50 (MDA-MB-231 breast) was 17.5 µM. The TGI (MDA-MB-231 breast) was 32.8 µM, the GI50 (NCI-H460 lung) was 19.4 µM and the TGI (NCI-H460 lung) was 41.2 µM. For the same compound, the GI50 (NCI/ADR-RES ovarian) was 18.2 µM, the TGI (NCI/ADR-RES ovarian) was 39.2 µM and the GI50 (RXF 393 renal) was 23.2 µM. It also gave a TGI (RXF 393 renal) of 53 µM.

With O=[N+]([O-])c1cc2oc(CSc3ccccc3)nc2cc1Cl the TGI (MCF7 breast) was over 100 µM, the TGI (MDA-MB-231 breast) was 76.9 µM and the TGI (NCI-H460 lung) was 81.2 µM. The TGI (NCI/ADR-RES ovarian) was 40 µM, the TGI (RXF 393 renal) was 93 µM and the TGI (TK-10 renal) was over 100 µM.

COc1cc(O)c2c(=O)c(OC)c(-c3ccc(OC)c(O)c3)oc2c1 showed a TGI (MCF7 breast) of over 100 µM, a TGI (MDA-MB-231 breast) of over 100 µM and a TGI (NCI-H460 lung) of over 100 µM. It also gave a TGI (NCI/ADR-RES ovarian) of over 100 µM, a TGI (RXF 393 renal) of over 100 µM and a TGI (TK-10 renal) of over 100 µM.

Work on CN1CCN(Cc2cc3c(nn2)-c2ccccc2C3=O)CC1 yielded a TGI (MCF7 breast) of over 100 µM, a TGI (NCI-H460 lung) of over 100 µM and a TGI (NCI/ADR-RES ovarian) of over 100 µM. For the same compound, the TGI (RXF 393 renal) was over 100 µM and the TGI (TK-10 renal) was over 100 µM.

In the case of N#CC(c1ccccc1)N(CCOCCOCCN(C(=O)c1ccccc1)C(C#N)c1ccccc1)C(=O)c1ccccc1 (stereo not given), the TGI (MCF7 breast) is reported as over 100 µM, the TGI (MDA-MB-231 breast) is reported as over 100 µM and the TGI (NCI-H460 lung) is reported as over 100 µM. It also gave a TGI (NCI/ADR-RES ovarian) of over 100 µM, a TGI (RXF 393 renal) of over 100 µM and a TGI (TK-10 renal) of over 100 µM.

Cn1ncc2c(NCc3ccccc3)ncnc21 was tested, and the TGI (MCF7 breast) was over 100 µM, the TGI (MDA-MB-231 breast) was over 100 µM and the TGI (NCI-H460 lung) was over 100 µM. For the same compound, the TGI (NCI/ADR-RES ovarian) was over 100 µM, the TGI (RXF 393 renal) was over 100 µM and the TGI (TK-10 renal) was over 100 µM.

Work on [N-]=[N+]=CC(=O)OC(CCl)CCl yielded a TGI (MCF7 breast) of over 100 µM, a TGI (MDA-MB-231 breast) of over 100 µM and a TGI (NCI-H460 lung) of over 100 µM. It also gave a TGI (RXF 393 renal) of over 100 µM and a TGI (TK-10 renal) of over 100 µM.

Compound CC1(C)C=CC(=O)C(O)C(C)(C)C1=O (stereo not given) has a TGI (MDA-MB-231 breast) of over 100 µM, a TGI (NCI-H460 lung) of over 100 µM and a TGI (NCI/ADR-RES ovarian) of over 100 µM. The TGI (RXF 393 renal) was over 100 µM and the TGI (TK-10 renal) was over 100 µM.

In the case of Cc1ccc(/C=C2/N=C(N/N=C\C(O)C(O)C(O)C(O)CO)NC2=O)cc1 (stereo not given), the TGI (MCF7 breast) is reported as over 100 µM, the TGI (MDA-MB-231 breast) is reported as over 100 µM and the TGI (NCI-H460 lung) is reported as over 100 µM. It also gave a TGI (NCI/ADR-RES ovarian) of over 100 µM, a TGI (RXF 393 renal) of over 100 µM and a TGI (TK-10 renal) of over 100 µM.

Compound Clc1ccc(C=NC23CC4CC(CC(C4)C2)C3)c(Cl)c1 has a TGI (MDA-MB-231 breast) of over 10 µM, a TGI (NCI-H460 lung) of over 10 µM and a TGI (NCI/ADR-RES ovarian) of over 10 µM. For the same compound, the TGI (RXF 393 renal) was over 10 µM and the TGI (TK-10 renal) was over 10 µM.

CCOC(=O)CC/C(=N/Nc1ccc(Cl)cc1[N+](=O)[O-])C(=O)OCC was tested, and the TGI (MCF7 breast) was over 100 µM, the TGI (MDA-MB-231 breast) was over 100 µM and the TGI (NCI-H460 lung) was over 100 µM. The TGI (NCI/ADR-RES ovarian) was over 100 µM, the TGI (RXF 393 renal) was over 100 µM and the TGI (TK-10 renal) was over 100 µM.

C=C1C(=O)[C@@]23CC[C@@H]4[C@@]5(C)CCC[C@@]4(OC5=O)[C@@]2(C)CC[C@@H]1C3 gave a TGI (MCF7 breast) of 2.21 µM, a TGI (NCI-H460 lung) of 3.74 µM and a TGI (NCI/ADR-RES ovarian) of 21.4 µM. For the same compound, the TGI (RXF 393 renal) was 3.25 µM and the TGI (TK-10 renal) was 2.44 µM.

For CSc1nc2c(c(N(C)C)n1)C(O)n1c(nc3ccccc31)S2 (stereo not given), the TGI (MCF7 breast) was over 100 µM, the TGI (MDA-MB-231 breast) was over 100 µM and the TGI (NCI-H460 lung) was over 100 µM. The TGI (NCI/ADR-RES ovarian) was over 100 µM, the TGI (RXF 393 renal) was 65.3 µM and the TGI (TK-10 renal) was over 100 µM.

Cc1ccnc(NC(=S)Nc2ccc([N+](=O)[O-])cc2)c1 was tested, and the TGI (MCF7 breast) was over 100 µM, the TGI (NCI-H460 lung) was over 100 µM and the TGI (NCI/ADR-RES ovarian) was over 100 µM. The TGI (RXF 393 renal) was over 100 µM and the TGI (TK-10 renal) was over 100 µM.

Compound CCOC(=O)C(NC(=O)CC)(N1CCN(c2cc3c(cc2F)c(=O)c(C(=O)O)cn3C2CC2)CC1)C(F)(F)F (stereo not given) has a TGI (MCF7 breast) of over 100 µM, a TGI (MDA-MB-231 breast) of over 100 µM and a TGI (NCI-H460 lung) of over 100 µM. It also gave a TGI (NCI/ADR-RES ovarian) of over 100 µM, a TGI (RXF 393 renal) of over 100 µM and a TGI (TK-10 renal) of over 100 µM.
